Measurements from paper PMC11091220, “Metabolism-driven in vitro/in vivo disconnect of an oral ERɑ VHL-PROTAC” (Communications Biology, 2024).

Tested on: MCF7 cells
Test: Cell proliferation assay (Sytox Green), MCF7
Assay type: cell-based
Details: Homo sapiens, 144 h; MCF7, 6 days; read-out: growth inhibition IC50
Protocol: Cell proliferation was assessed by measuring live cell numbers using the Sytox Green assay. MCF7 and CAMA1 cells were seeded in 96-well clear-bottom black microplates (Costar) at 4x10^3 and 8x10^3 cells per well, respectively, based on the doubling time of each cell line. Plates were incubated at 37 °C, 5% CO2 for 24 hours prior to being treated with DMSO, AZ’6421 or fulvestrant in a 10-point concentration range, with a final DMSO concentration of 0.1%. A single plate was left untreated, designated a Day 0 plate. The number of live cells was determined at Day 0 and Day 7 using the Sytox green assay. Briefly, 5 mM Sytox green nucleic acid dye (Invitrogen) was diluted 1:2500 in 500 mM tris-buffered saline (TBS) with ethylenediaminetetraacetic acid (EDTA) and 7 μL was added per well. Plates were then incubated in the dark at room temperature for 1 hour and the number of green cells in each well (dead cells) was measured using an Acumen Explorer high-throughput cell imager (TTP Labtech). Next, 14 μL of 0.25% w/v Saponin in TBS/EDTA solution was added overnight to permeabilize the cells, permitting a total cell count. The number of live cells was calculated by subtracting the dead cell count from the total cell count. The data obtained were then used to perform curve fitting analysis using GraphPad Prism. Average cell counts from the Day 0 plate were used to determine 0% cell growth. […]

SMILES: Cc1ncsc1-c1ccc(CNC(=O)[C@@H]2C[C@@H](O)CN2C(=O)[C@@H](NC(=O)COCCCOCCCOc2cc(F)c([C@@H]3c4[nH]c5ccccc5c4C[C@@H](C)N3CC(C)(C)F)c(F)c2)C(C)(C)C)cc1 [Compound 5]
- IC50: 0.5 nM
